We go through four compounds from the NIST ThermoML archive (doi:10.1021/acs.jced.9b00041).

Usually mass density stands for mass per unit of volume.

Numbers after ± are expanded uncertainties.

The conditions of data set [1]: 298.15 K; 101.33 kPa; Liquid; Vibrating tube method.
Data set [2] is described as follows: wn = mass fraction of the nth substance listed. To be noted: 298.15 K; 100 kPa; Liquid; Vibrating tube method; w2 = 0.089.

In the case of `CC(O)C(=O)O` (centres undefined) [2-hydroxypropanoic acid], in data set [1], the mass density is listed as 1202.57 ± 35 kg/m3.

Regarding `CC(=O)CCC(=O)O` [4-oxopentanoic acid], in data set [1], the mass density turned out to be 1135.71 ± 10 kg/m3. For `CCCC[n+]1ccn(C)c1.O=S(=O)([N-]S(=O)(=O)C(F)(F)F)C(F)(F)F`, the mass density in data set [1] turned out to be 1436.46 ± 10 kg/m3. On to `CC(O)C(=O)O` (centres undefined) [2-hydroxypropanoic acid] + O, for which, in data set [2], the mass density is on record as 1202.57 ± 10 kg/m3.
